Data on one compound can be found in US20110144125A1, “Anti-Arrhythmia Agents, Methods of Their Use, Methods of Their Identification and Kits Therefore” (THE UAB RESEARCH FOUNDATION, priority 2008, published 2011).

For the assay, the system named is rat left atrial appendage. Nature of the assay: ATXII-induced triggered activity and transition to automaticity in left atrial appendage. The following applies: ATXII-treated appendages, ˜25 μM 2-APB. From the text: There are two types of afterdepolarizations; early afterdepolarizations (EADs) that occur early during repolarization and delayed afterdepolarizations (DADs) that occur in fully repolarized, resting myocytes (FIG. 4). Both EADs and DADs are defined as “triggered” activities as they require a preceding normal action potential to occur (FIG. 3B). One model to elicit EADs is to expose heart muscle or myocytes to Anemonia sulcata Toxin II (ATX II). This 47 amino acid peptide specifically enhances late sodium current and prolongs the action potential duration (FIG. 3D; middle panel). This leads to calcium loading of heart muscle followed by EADs during phase 2 or phase 3 of the action potential (FIGS. 3D & 5). These EADs, if of sufficient magnitude, produce ectopic mechanical events (FIG. 3B; ‡).
In embodiments of the assay an agent to induce arrhythmia will be introduced in the muscle. The arrhythmic agent may be chemical or physical. If the agent is chemical, it can be any chemical agent known by those skilled in the art to induce arrhythmia. The chemical agent will be introduced at a concentration sufficient to induce arrhythmia. If a certain type of arrhythmia is the subject of the assay (for example, triggered activity, tachycardia or any other type of arrhythmia), then the agent should be present at a concentration sufficient to produce the certain type of arrhythmia. One acceptable agent is anemone toxin II (“ATX II,”), the toxin of Anemone sulcata. ATX II is a sodium channel regulator.
It was tested whether the altered voltage-independent calcium homeostasis which 2-APB provokes is sufficient to initiate frank automaticity from triggered activity.

For `NCCOB(c1ccccc1)c1ccccc1` [2-APB, 2-aminoethoxydiphenyl borate], the “transition from triggered activity to STA” value was “STA began to occur”.
